{"source": "patent US5470877A", "about": "“Uses of perillic acid methyl ester” (Wisconsin Alumni Research Foundation, priority 1994, dated 1995)", "key": {"[1]": {"tested_on": "NIH3T3 cells", "assay": "NIH3T3 cell growth inhibition (FIG. 3)", "assay_type": "cell-based, mouse", "conditions": "NIH3T3 (murine) cells", "procedure": "NIH3T3 (mouse embryo) cells were obtained from the American Type Culture Collection and were grown in Dulbecco's modified Eagle's medium supplemented with 10% calf serum. M600B immortalized human mammary epithelial cells (Stampfer, M.R., 1985, J. Tissue Culture Methods 9:107-115) were, obtained from Dr. Martha Stampfer and were grown in supplemented HCDB 170 medium (Hammond, et al. (1984) Proc. Natl. Acad. Sci U.S.A. 81:5435-5439), as described previously (Stampfer, et al. (1985) Proc. Natl. Acad. Sci U.S.A. 82:2394-2398; Eldridge, et al. (1989) Cancer Res. 49:4326-4331).\nAll cells were maintained in 100-mm dishes at 37° C. in a humidified 5% CO2 atmosphere. Viable cells were distinguished from nonviable cells by counting azure II/methylene blue-stained colonies 10 days after the cells were plated at a density of 100 cells per dish. Trypan blue exclusion was measured by incubating cells for 1 min with one drop of trypan blue per 10 ml of cells. Viable (colorless) and nonviable (blue) cells were then counted on a hemocytometer.\nWe examined the effect of several of the terpenes on certain types of cell growth. […] Additionally, growth of HT29 (human colon adenocarcinoma) cells was inhibited by 80% by 1 mM perillyl alcohol."}, "[2]": {"tested_on": "21-26 kDa proteins", "assay": "Protein isoprenylation inhibition in M600B human mammary epithelial cells", "conditions": "3 mM", "experimental": "To test whether a specific monoterpene affects isoprenylation of proteins in cells, cell extracts were incubated with a radioactive isoprene precursor and 0-5 mM of the test monoterpene and then subjected to SDS-PAGE. Because they carried a radioactive label, isoprenylated proteins were visualized by fluorography. As a control, cells were incubated without the monoterpene.\nFor both isoprenylation and cell growth assays, the monoterpenes were mixed with prewarmed (37° C.) medium containing 10% calf serum, and then the monoterpene-containing medium was added to cells. The relative effects of various monoterpenes on protein isoprenylation were compared by comparison of the relative intensity of bands on fluorograms from [^14 C]-mevalonate-labelled cells treated with each monoterpene.\nSome fluorograms were analyzed further by densitometry. Where indicated, gels were sliced, dissolved at 50° C. for 3 hours in 0.5 ml of water+0.5 ml of Solvable (Amersham), and then analyzed by scintillation spectrometry in 10 ml of Atom light (Amersham) mixture.\nSamples from each cell line were then analyzed on the same gel."}, "[3]": {"assay": "Tolerability in nude mice (National Cancer Institute)", "assay_type": "in vivo", "procedure": "In an extension of our work, the National Cancer Institute has studied the effect of perillyl alcohol doses in nude mice using an oral bid ×14 day schedule. […] Perillyl alcohol was also administered in PEG400 at the same dose levels."}, "[4]": {"assay": "Plasma metabolite identification and quantitation in rats", "assay_type": "in vivo, Wistar-Furth rat", "conditions": "for DHPA (% total) / DHPAME (% total) / LIM/POH (% total) / PA (% total) / PAME (% total) / mM LIM/POH: plasma", "procedure": "Control animals received oil alone. At the chosen time points, rats were anesthetized with ether and blood was collected into heparinized tubes (Heparin (Sigma, Grade II), at 20 mg/ml in 0.9% saline). Plasma was removed following centrifugation and stored at -20° C.\nFor quantitation of chronic plasma metabolite levels of perillyl alcohol, female WF rats were housed individually and fed fresh diet daily. The afternoon before blood collection, all rats were given approximately 20 grams of the appropriate diet and allowed to eat ad. libitum for 18 hours. Food consumption data was determined the next morning and the rats were bled within 2 hours following food removal.\nBriefly, 5 μl of a 10 mM solution of perillaldehyde was added to 50 μl plasma as an internal standard for quantitation. The plasma was mixed with an equal volume of n-butanol:acetonitrile (1:1, v/v), after which another volume of saturated potassium phosphate was added. After vortexing, the samples were centrifuged and the organic layer removed from the top.\nPlasma extracts were analyzed using a Hewlett-Packard 5891 gas chromatograph equipped with a flame-ionization detector or a Hewlett-Packard 5890 chromatograph equipped with a 5971A mass-selective detector, both with 30 m Supelco SPB-5 columns. The temperature program was 90° C. for 4 minutes, increasing by 10° C./minute, followed by 15 minutes at 275° C. The split ratio was 1:10 and the linear velocity was 1.1 ml/minute. Standard curves were generated by adding 5 μl rat plasma. Standards were then extracted and analyzed by capillary gas chromatography. The ratio of the terpene peak area/perillaldehyde peak area versus the concentration of terpene in the sample was plotted."}, "[5]": {"tested_on": "CoQ9 and cholesterol synthesis", "assay": "Mevalonate metabolism: CoQ9 and cholesterol synthesis in NIH3T3 cells", "assay_type": "cell-based, mouse", "conditions": "for activity at 1000 µM: Mus musculus, NIH3T3, 3 h, average of four experiments ± SD", "procedure": "Analysis of Mevalonate Metabolism. NIH3T3 cells were grown in Dulbecco's modified Eagle's medium supplemented with 10% calf serum. […] The cells were then trypsinized, washed and resuspended in phosphate-buffered saline. The protein concentrations were determined using a bicinchoninic acid protein assay (Shihabi, et al, Ann. Clin. Lab. Sci. 18:235-239, 1988). Samples containing equal amount of protein were spotted on TLC plates with or without acetone extraction (Maziere, et al, J. Biochem. Biophys. Methods 14:267-272, 1987.) The TLC plates were developed with hexane/diethyl ether/acetic acid (70:30:2, v/v) (Maziere, et al, Supra). Dry plates were analyzed for radioactivity using a phosphorimager (Molecular Dynamics).\nLabeling Cells with [^14 C(U)] Tyrosine. NIH3T3 cells were treated with 30 μM lovastatin for 18 hours and then incubated in fresh tyrosine deficient minimum essential medium (supplemented with 10% dialyzed fetal bovine serum) containing 400 μM mevalonic acid lactone (Sigma) and 14 μCi/ml [^14 C(U)] tyrosine (500 mCi/mmol) for 3 hours in the absence or presence of 1 mM perillyl alcohol. Cells were harvested and lipids were analyzed as described above.\nHPLC Analysis of Unsaponifiable Lipids. Cells were labeled with [2-^14 C] mevalonolactone as described above and then were saponified as described by Popjak et al, J. Lipid Res, 26:831-841, 1985. Unsaponifiable lipids were extracted with petroleum ether, dried and dissolved in chloroform methanol (1:1, v/v). Reverse phase HPLC using a Bio-Rad ODS-5S (25 cm×4 mm) column fitted with a Sigma hypersil ODS guard column was run isocratically with methanol/acetonitrile/water (72.5:22.5:5, v/v) at a flow rate of 0.8 ml/min. The effluent was monitored at 210 nm, the fractions were collected, and radioactivities were determined with a Beckman LS 6000IC Scintillation Counter."}, "[6]": {"conditions": "chronic week 3, 10% LIM or 2% POH diet"}, "[7]": {"conditions": "chronic week 5, 10% LIM or 2% POH diet"}, "[8]": {"conditions": "chronic week 10, 10% LIM or 2% POH diet"}}, "note": "Entries after “also recorded” stand apart in the source; their conditions may differ. Read-outs that look alike come from different tables or passages of the source."}
{"smiles": "C=C(C)[C@@H]1CC=C(CO)CC1", "note": "[perillyl alcohol]", "values": [{"measurement": "inhibition of cell growth", "setting": "[1]", "result": "significantly inhibited cell growth in a dose-dependent manner"}, {"measurement": "isoprenylation of 21-26 kDa proteins", "setting": "[2]", "result": "inhibited significantly"}, {"measurement": "weight loss", "setting": "[3]; 0.5 g/kg/treatment oral bid, sesame oil", "result": "No weight loss"}, {"measurement": "course of weight loss", "setting": "[3]; 1.0 gram/kg/treatment oral bid, after day 10", "result": "the weight loss leveled off"}, {"measurement": "average body weight lost", "setting": "[3]; 1.0 gram/kg/treatment oral bid, diluted 1:1 in sesame oil, day 10", "result": 3, "unit": "g"}, {"measurement": "lethality", "setting": "[3]; in PEG400, same dose levels", "result": "Lethality was observed"}, {"measurement": "parent detection in plasma", "setting": "[4]; acute gavage, any time point including 30 minutes", "result": "not detected at any time point including 30 minutes post-gavage"}, {"measurement": "major metabolite detected", "setting": "[4]; acute gavage, rat", "result": "perillic acid"}, {"measurement": "perillic and dihydroperillic acids in plasma", "setting": "[4]; acutely administered, rat", "result": "detectable at 24 hours post-administration"}, {"measurement": "parent compound in plasma", "setting": "[4]; chronically fed rats", "result": "Neither limonene nor perillyl alcohol was detected"}, {"measurement": "DHPA (% total)", "setting": "[4]; acute 1 g/kg, 4 hour", "result": 5, "unit": "% total"}, {"measurement": "DHPAME (% total)", "setting": "[4]; acute 1 g/kg, 4 hour", "result": "< 1", "unit": "% total"}, {"measurement": "LIM/POH (% total)", "setting": "[4]; acute 1 g/kg, 4 hour", "result": 0, "unit": "% total"}, {"measurement": "PA (% total)", "setting": "[4]; acute 1 g/kg, 4 hour", "result": 71, "unit": "% total"}, {"measurement": "PAME (% total)", "setting": "[4]; acute 1 g/kg, 4 hour", "result": 24, "unit": "% total"}, {"measurement": "mM LIM/POH", "setting": "[4]; acute 1 g/kg, 4 hour, mean ± SEM", "result": "0.00 ± 0.00", "unit": "mM"}, {"measurement": "DHPA (% total)", "setting": "[4]; [6]", "result": 19, "unit": "% total"}, {"measurement": "DHPAME (% total)", "setting": "[4]; [6]", "result": 2, "unit": "% total"}, {"measurement": "LIM/POH (% total)", "setting": "[4]; [6]", "result": 0, "unit": "% total"}, {"measurement": "PA (% total)", "setting": "[4]; [6]", "result": 69, "unit": "% total"}, {"measurement": "PAME (% total)", "setting": "[4]; [6]", "result": 10, "unit": "% total"}, {"measurement": "mM LIM/POH", "setting": "[4]; [6]", "result": 0, "unit": "mM"}, {"measurement": "DHPA (% total)", "setting": "[4]; [7]", "result": 25, "unit": "% total"}, {"measurement": "DHPAME (% total)", "setting": "[4]; [7]", "result": 3, "unit": "% total"}, {"measurement": "LIM/POH (% total)", "setting": "[4]; [7]", "result": 0, "unit": "% total"}, {"measurement": "PA (% total)", "setting": "[4]; [7]", "result": 62, "unit": "% total"}, {"measurement": "PAME (% total)", "setting": "[4]; [7]", "result": 10, "unit": "% total"}, {"measurement": "mM LIM/POH", "setting": "[4]; [7]", "result": 0, "unit": "mM"}, {"measurement": "DHPA (% total)", "setting": "[4]; [8]", "result": 28, "unit": "% total"}, {"measurement": "DHPAME (% total)", "setting": "[4]; [8]", "result": 4, "unit": "% total"}, {"measurement": "LIM/POH (% total)", "setting": "[4]; [8]", "result": 0, "unit": "% total"}, {"measurement": "PA (% total)", "setting": "[4]; [8]", "result": 59, "unit": "% total"}, {"measurement": "PAME (% total)", "setting": "[4]; [8]", "result": 10, "unit": "% total"}, {"measurement": "mM LIM/POH", "setting": "[4]; [8]", "result": 0, "unit": "mM"}, {"measurement": "rate of conversion to metabolites", "setting": "[4]; rat", "result": "rapidly metabolized to the same metabolites as limonene; also recorded: more rapidly converted to metabolites than limonene"}, {"measurement": "major plasma metabolites", "setting": "[4]; rat, 1 g/kg gavage, 4 hours", "result": "perillic acid and dihydroperillic acid"}, {"measurement": "minor plasma metabolites", "setting": "[4]; rat, 1 g/kg gavage, 4 hours", "result": "minor levels of these acids' methyl esters"}, {"measurement": "CoQ9 labeled from [14C(U)] tyrosine", "setting": "[5]; 1 mM perillyl alcohol", "result": "greatly reduced"}, {"measurement": "activity at 1000 µM", "setting": "[5]; 1 mM perillyl alcohol, read-out: Cholesterol + Lathosterol synthesis (% of Control)", "result": "107 ± 16.5", "unit": "%"}, {"measurement": "activity at 1000 µM", "setting": "[5]; 1 mM perillyl alcohol, read-out: Cholesterol synthesis (% of Control)", "result": "26.7 ± 4.7", "unit": "%"}, {"measurement": "activity at 1000 µM", "setting": "[5]; 1 mM perillyl alcohol, read-out: CoQ9 synthesis (% of Control)", "result": "14.1 ± 4.6", "unit": "%"}, {"measurement": "activity at 1000 µM", "setting": "[5]; 1 mM perillyl alcohol, read-out: Lathosterol synthesis (% of Control)", "result": "427 ± 130", "unit": "%"}, {"measurement": "recovery of labeled CoQ9", "setting": "[5]; cold control medium up to 6 hours post-labeling", "result": "labeled CoQ9 could not be observed"}, {"measurement": "block of cholesterol synthesis on continued exposure", "setting": "[5]; continually grown in 1 mM perillyl alcohol", "result": "maintained the block of cholesterol synthesis"}, {"measurement": "conversion of labeled cholesterol back to lathosterol", "setting": "[5]; reincubated in 1 mM perillyl alcohol after control medium", "result": "did not convert labeled cholesterol back to labeled lathosterol"}, {"measurement": "neutral lipid metabolism changes in treated cells", "setting": "[5]; spot X = CoQ9, Y = cholesterol, Z = lathosterol", "result": "inhibition of two spots (X and Y) and the increased accumulation of a third spot (Z)"}, {"measurement": "neutral lipid changes after [14C]squalene labeling", "setting": "[5]; spot Y = cholesterol, spot Z = lathosterol", "result": "inhibition of spot Y and the accumulation of spot Z"}, {"measurement": "reversibility of block of cholesterol synthesis", "setting": "[5]; switched to control medium, 3 hour chase", "result": "Lathosterol was observed to be converted to cholesterol"}]}
